Tests used:
[1] = tested on: Staphylococcus epidermidis ATCC 35984; test: MIC, broth microdilution, MDR/BPSE reference strain; assay type: cell-based; conditions: Staphylococcus epidermidis, ATCC35984, read-out: MIC MDR/BPSE, Staphylococcus epidermidis ATCC 35984
Excerpt: These strains included susceptible, multidrug-resistant, and biofilm-producing strains of S. epidermidis and S. aureus (MSSE, MDR/BPSE, and MDR/BPSA, respectively). The cornerstone antibiotic linezolid served as a positive control (Table 1). The impact of structural modifications at the aryloxy fragment and the aromatic moiety bound to the propyl linker on the inhibitory activity was initially investigated. […] Further optimization focused on evaluating the impact of the type of substituent and its position on the arylsulfonamide fragment’s activity.
2 Biological assay protocols
Microbiological tests were carried out under aseptic conditions in a laminar chamber of the 2nd […]
(BioTectum 1.2, Alchem Poland). The assessment of antimicrobial activity was carried out for final compounds in the form of free bases, soluble in DMSO (Merck, Germany), at the initial […]
concentration of 1 mg/mL. […]
were provided by Cayman Chemical, USA.
The activity of all newly synthesized compounds was tested in vitro on a panel of selected reference strains from the American Type Culture Collection (ATCC) of Gram-positive […]
2.2 Effect of evaluated compounds on planktonic cells
The susceptibility of three reference bacterial strains (Staphylococcus epidermidis ATCC […]
Table S1) and 81 clinical MDR S. epidermidis (Table S2) to the tested compounds was assessed by determining the MIC value (Minimal Inhibitory Concentration) by microdilution in a liquid medium in 96-well flat-bottom cell culture plates (Nest Biotechnology Scientific, USA). The antibacterial properties of the compo unds were tested in the concentration range from 50 µg/mL to 0.1 µg/mL by making a series of double dilutions of the compound in liquid Mueller -Hinton II Broth Cation Adjusted (MHB II, BBL TM, USA) according to the European Committee on […]
Antimicrobial Susceptibility Testing guidelines (EUCAST).2,3 The determinations were performed twice. The MIC50 and MIC90 values were determined for each of the tested

[2] = tested on: horse red blood cells; test: Hemolytic activity assay
Method: 2.3.3 Hemolytic activity assay
The hemolytic properties of tested compound were evaluated according to previously reported procedure.6 Defibrinated horse red blood cells purchased from Thermo Fisher Scientific (Germany) were washed with PBS (3000 rpm, 10 min at 4 °C) for three times followed by PBS dilution to obtain a 8% suspension. Then, 100 μL of the resulting suspensions […]
were treated with 100 μL of tested compound at the final concentration of 200 μM, and incubated at 37 °C for 1 h. Triton X-100 (2%) and PBS were used as positive and negative controls, respectively. After centrifugation at 3000 rpm for 3 min, 100 μL of the supernatants were transferred to a 96 well microtiter plate and the hemoglobin release was determined in a SpectraMax iD3 reader (Molecular Devices) by absorption at 540 nm. […]

[3] = tested on: biofilm-producing Staphylococcus epidermidis strains; test: Biofilm eradication (MBEC Assay Kit); assay type: cell-based

O=S(=O)(NC1CCN(CCC(Oc2ccc(C(F)(F)F)cc2)c2cccs2)CC1)c1cccc(Br)c1 (stereo not shown) [Compound 18]
MIC [1]: ≤ 0.8 µg/mL

O=C(Nc1cccc(Cl)c1)NC1CCN(CCC(Oc2ccc(C(F)(F)F)cc2)c2cccs2)CC1 (stereo not shown) [Compound 25]
MIC [1]: ≤ 0.8 µg/mL
%hem (hemolytic activity) ([2]; 200 μM, 1 h, n = 3): 0.54%
lysis of erythrocytes ([2]; concentrations up to 200 μM): None of them caused lysis of erythrocytes
MBEC ([3]; S. epidermidis ATCC 35984 (Table S4)): 7.8 µg/mL
MBEC50 ([3]; Table S4 strains): 31.25 µg/mL
MBEC90 ([3]; Table S4 strains): 31.25 µg/mL
MBEC ([3]; clinical strain 1 (Table S4)): 31.25 µg/mL
MBEC ([3]; clinical strain 2 (Table S4)): 31.25 µg/mL
MBEC ([3]; clinical strain 3 (Table S4)): 31.25 µg/mL
MBEC ([3]; clinical strain 4 (Table S4)): 31.25 µg/mL
MBEC ([3]; clinical strain 6 (Table S4)): 15.6 µg/mL
MBEC ([3]; clinical strain 7 (Table S4)): 31.25 µg/mL
MBEC ([3]; clinical strain 8 (Table S4)): 7.8 µg/mL
MBEC ([3]; clinical strain 9 (Table S4)): 31.25 µg/mL
MBEC ([3]; clinical strain 11 (Table S4)): 31.25 µg/mL
MBEC ([3]; clinical strain 12 (Table S4)): 31.25 µg/mL
MBEC ([3]; clinical strain 13 (Table S4)): 3.9 µg/mL
MBEC ([3]; clinical strain 15 (Table S4)): 31.25 µg/mL
MBEC ([3]; clinical strain 16 (Table S4)): 31.25 µg/mL
MBEC ([3]; clinical strain 17 (Table S4)): 15.6 µg/mL
MBEC ([3]; clinical strain 19 (Table S4)): 15.6 µg/mL
MBEC ([3]; clinical strain 21 (Table S4)): 31.25 µg/mL
MBEC ([3]; clinical strain 22 (Table S4)): 31.25 µg/mL
MBEC ([3]; clinical strain 23 (Table S4)): 7.8 µg/mL
MBEC ([3]; clinical strain 25 (Table S4)): 7.8 µg/mL
MBEC ([3]; clinical strain 26 (Table S4)): 31.25 µg/mL
MBEC ([3]; clinical strain 27 (Table S4)): 31.25 µg/mL
MBEC ([3]; clinical strain 28 (Table S4)): 31.25 µg/mL
MBEC ([3]; clinical strain 29 (Table S4)): 31.25 µg/mL
MBEC ([3]; clinical strain 30 (Table S4)): 3.9 µg/mL
MBEC ([3]; clinical strain 33 (Table S4)): 31.25 µg/mL
MBEC ([3]; clinical strain 35 (Table S4)): 31.25 µg/mL
MBEC ([3]; clinical strain 36 (Table S4)): 31.25 µg/mL
MBEC ([3]; clinical strain 37 (Table S4)): 31.25 µg/mL
MBEC ([3]; clinical strain 39 (Table S4)): 3.9 µg/mL
MBEC ([3]; clinical strain 40 (Table S4)): 31.25 µg/mL
MBEC ([3]; clinical strain 41 (Table S4)): 31.25 µg/mL
MBEC ([3]; clinical strain 42 (Table S4)): 31.25 µg/mL
MBEC ([3]; clinical strain 43 (Table S4)): 31.25 µg/mL
MBEC ([3]; clinical strain 44 (Table S4)): 15.6 µg/mL
MBEC ([3]; clinical strain 45 (Table S4)): 31.25 µg/mL
MBEC ([3]; clinical strain 46 (Table S4)): 31.25 µg/mL
MBEC ([3]; clinical strain 47 (Table S4)): 15.6 µg/mL
MBEC ([3]; clinical strain 49 (Table S4)): 15.6 µg/mL
MBEC ([3]; clinical strain 51 (Table S4)): 31.25 µg/mL
MBEC ([3]; clinical strain 55 (Table S4)): 31.25 µg/mL
MBEC ([3]; clinical strain 58 (Table S4)): 31.25 µg/mL
MBEC ([3]; clinical strain 59 (Table S4)): 31.25 µg/mL
MBEC ([3]; clinical strain 65 (Table S4)): 31.25 µg/mL
MBEC ([3]; clinical strain 66 (Table S4)): 15.6 µg/mL
MBEC ([3]; clinical strain 67 (Table S4)): 31.25 µg/mL
MBEC ([3]; clinical strain 70 (Table S4)): 31.25 µg/mL
MBEC ([3]; clinical strain 73 (Table S4)): 7.8 µg/mL
MBEC ([3]; clinical strain 74 (Table S4)): 15.6 µg/mL
MBEC ([3]; clinical strain 75 (Table S4)): 31.25 µg/mL
MBEC ([3]; clinical strain 78 (Table S4)): 7.8 µg/mL
MBEC ([3]; clinical strain 79 (Table S4)): 7.8 µg/mL
